Results published in patent US8518989B2, “Prodrugs of short-chain fatty acids and treatment methods” (Georgia Health Sciences University Research Institute, Inc., priority 2005, dated 2013).

Columns and labels:
rat ATB^0,+ [1] = molecular target: T1, rat ATB^0,+ (Rattus norvegicus, UniProt Q334I2); experiment: Inhibition of ATB0,+-mediated 3H-glycine uptake in HRPE cells expressing cloned rat ATB0,+; type: cell-based; conditions: 5 mM; HRPE cells
T1 sequence (Q334I2 1-640): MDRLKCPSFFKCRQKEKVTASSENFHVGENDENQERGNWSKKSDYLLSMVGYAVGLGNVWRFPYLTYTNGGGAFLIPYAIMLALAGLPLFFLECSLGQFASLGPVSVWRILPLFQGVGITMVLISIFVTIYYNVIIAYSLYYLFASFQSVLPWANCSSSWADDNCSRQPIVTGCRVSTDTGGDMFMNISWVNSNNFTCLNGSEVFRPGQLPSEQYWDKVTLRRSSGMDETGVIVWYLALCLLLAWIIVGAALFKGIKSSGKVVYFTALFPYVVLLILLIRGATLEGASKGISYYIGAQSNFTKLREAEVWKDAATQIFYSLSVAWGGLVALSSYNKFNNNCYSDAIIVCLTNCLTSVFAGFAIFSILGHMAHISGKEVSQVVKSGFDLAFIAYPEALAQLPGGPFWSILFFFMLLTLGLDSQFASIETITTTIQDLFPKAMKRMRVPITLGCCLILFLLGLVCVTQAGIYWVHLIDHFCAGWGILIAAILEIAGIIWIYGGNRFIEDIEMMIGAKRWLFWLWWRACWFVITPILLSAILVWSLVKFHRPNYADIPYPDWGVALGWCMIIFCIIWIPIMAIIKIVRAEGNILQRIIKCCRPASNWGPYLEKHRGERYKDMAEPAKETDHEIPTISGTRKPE

rat ATB^0,+ [2] = molecular target: T1, rat ATB^0,+; experiment: Substrate-induced inward currents in Xenopus oocytes expressing rat ATB0,+ (voltage clamp); type: cell-based; conditions: 5 mM; voltage clamp
Protocol: Experiments with HRPE cells were repeated at least three times with three independent transfections and transport measurements made in duplicate in each experiment. Electrophysiological measurements of substrate-induced currents were repeated at least three times with separate oocytes. The data are presented as means±S.E.M. of these replicates. The kinetic parameters, Michaelis constant (Kt) and maximal velocity (Vmax) were calculated by fitting the ATB^0,+-specific transport data to the Michaelis-Menten equation describing a single saturable transport system. Na^+ and Cl^−-activation kinetics were analyzed by fitting the ATB^0,+-specific transport data to the Hill equation for the determination of K0.5 values for Na^+ and Cl^− (concentration of Na^+ and Cl^− necessary for half-maximal activation) and the Hill coefficient (nH; the number of Na^+ or Cl^− ions involved in the activation process). The kinetics parameters were first determined by non-linear regression methods and subsequently confirmed by linear regression methods using the commercially-available computer program SigmaPlot, version 6.0 (SPSS Inc., Chicago, Ill., US).
Therefore, it was necessary to determine whether or not the α-carboxyl esters of neutral amino acids are transportable substrates for ATB^0,+. For this purpose, we used the X. laevis oocyte expression system. Cloned rat ATB^0,+ was functionally expressed in oocytes by injection of corresponding cRNA, and the transport of substrates via the transporter was monitored by inward currents when the oocytes were exposed to putative substrates under voltage-clamp conditions.

SMILES: CC(=O)O [acetate]
- Inhibition of ATB0,+-mediated glycine transport (in words) (rat ATB^0,+ [1]): did not inhibit glycine transport
- Inward currents induced in ATB0,+-expressing oocytes (in words) (rat ATB^0,+ [2]): did not induce detectable current
